Paper PMC12518639, “Apomorphine is a novel necroptosis inhibitor targeting mixed lineage kinase domain-like protein oligomerization” (Cell Death Discovery, 2025)

What was measured:
ulcerative colitis = test system: ulcerative colitis; design: method as in PMID 34389633; conditions: phase II trial; cited from earlier work
mouse MLKL = test system: mouse MLKL; design: method as in PMID 28827318; conditions: cited from earlier work
Wt-hMLKL = target: T1, Wt-hMLKL (Homo sapiens, UniProt Q8NB16); assay: SPR competition assay of NSA with Ox-APO; type: binding; conditions: 200 μM NSA, 750 μM Ox-APO
T1 construct: purchased Abcam ab241453
T1 sequence (Q8NB16 1-471): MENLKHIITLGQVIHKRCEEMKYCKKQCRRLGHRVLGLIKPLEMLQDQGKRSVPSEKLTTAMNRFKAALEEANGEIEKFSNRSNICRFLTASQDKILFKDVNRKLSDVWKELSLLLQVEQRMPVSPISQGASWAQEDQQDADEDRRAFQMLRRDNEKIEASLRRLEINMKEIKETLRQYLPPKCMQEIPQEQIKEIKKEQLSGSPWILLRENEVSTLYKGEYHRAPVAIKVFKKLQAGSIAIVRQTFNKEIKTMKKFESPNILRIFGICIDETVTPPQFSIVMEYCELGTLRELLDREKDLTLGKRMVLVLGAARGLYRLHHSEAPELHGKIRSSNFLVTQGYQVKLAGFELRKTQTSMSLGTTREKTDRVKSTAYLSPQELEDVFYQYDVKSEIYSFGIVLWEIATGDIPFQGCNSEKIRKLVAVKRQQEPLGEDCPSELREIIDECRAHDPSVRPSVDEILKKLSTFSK
Method: Fig. S4 Competition assay of NSA with Ox-APO by SPR. Wt-hMLKL was immobilized on a CM5 chip and 750 μM Ox-APO was overflowed in the presence or absence of 200 μM NSA.

THP-1-HMGB1-Lucia cells = assay: TBZ-induced necroptosis screening by HMGB1-luciferase release; type: cell-based, human; conditions: 20 μM compound with TBZ, 8 h, TBZ alone = 100, DPBS = 0, read-out: % Inhibition (luciferase activity relative to TBZ-treated supernatant); for activity at 20 µM: Homo sapiens
Method: (§1) To identify potential inhibitors of the necroptosis pathway targeting MLKL or the process of p-MLKL pore formation on the membrane, we screened a library of 2150 compounds, including FDA-approved drugs and those in phase 1–3 clinical trials, using THP-1-HMGB1-Lucia™ cells expressing the HMGB1-luciferase fusion protein. The cells were treated with a necroptosis-inducing mixture containing TNF-α, BV6, and Z-VAD-FMK (TBZ) in addition to the compound library (Fig. 1A). The supernatants were harvested to measure luciferase activities for necroptosis. The luciferase activities of cell supernatants treated with TBZ alone were considered as the maximum release (100%) of HMGB1-luciferase. NEC-1, a known RIP1 inhibitor used in both humans and mice, was used as a positive control. […] Next, we performed a propidium iodide (PI) uptake assay to exclude cytotoxic compounds using THP-1 cells. Then, we selected candidate molecules that were arbitrarily less than 30% of those treated with TBZ. […] Next, the inhibition levels of p-MLKL were tested to select MLKL-targeting molecules (Figs. 1C and S1A). Compounds that reduced p-MLKL levels to less than 30% of TBZ-treated controls were considered as potential inhibitors of MLKL phosphorylation. Conversely, compounds that maintained p-MLKL levels above 70% were selected because they are presumed to prevent the formation of pores in the plasma membrane by interfering with oligomerization.
A clinical chemical library containing 2150 items (Korea Chemical Bank, South Korea), under phase 1–3 clinical trials, including FDA-approved drugs, was used to screen for necroptosis inhibitors. Each chemical was dissolved in DMSO and diluted to 20 μM in DPBS for treatment.
THP-1-HMGB1-Lucia^TM cells were pretreated with the pan-caspase inhibitor Z-VAD-FMK (50 μM, tlrl-vad, InvivoGen) and each chemical for 1 h, and followed by TNF-α (100 ng/mL, TNF0501, NKMAXBio, Seongnam, S. Korea) and Smac mimetic BV6 (10 μM, B1332-5, Biovision, Santa Clara, CA, USA), termed TBZ mixture, were added for necroptosis screening. The RIP1 inhibitor, NEC-1 (1846, Biovision), and MLKL inhibitor, NSA (432531-71-0, Sigma-Aldrich, St. Louis, MO, USA), were used as controls. The cell supernatant was harvested to measure HMGB1 levels using a luciferase assay kit (E1500, Promega, Madison, WI, USA) by a luminometer (Centro XS3 LB 960, Berthold Technologies, Bad Wildbad, Germany). The inhibition of necroptosis (%) was calculated as: (sample-treated data – medium-only data) × 100/(TBZ-treated data – medium-only data). APO [STK088477, (6aS)-6-methyl-5,6,6a,7-tetrahydro-4H-dibenzo[de,g]quinoline-10,11-diol, Vitas-M Laboratory, Hong Kong] was stored at −70 °C after aliquoting with DMSO. APO was used after dilution in DPBS. APO is susceptible to auto-oxidation in solution in the presence of light and air. DPBS containing 5 mM DTT was used for Re-APO. Ox-APO was prepared by incubating APO in DPBS at 25 °C for 24 h in the presence of light and air, followed by removal of any precipitate by filtration through 0.2 μm.

p-MLKL and p-RIP1 = assay: Western blot of cytosol and membrane fractions; type: cell-based, human; conditions: THP-1, TBZ, 20 μM
Method: (§2) The cells were harvested and lysed in 1× RIPA buffer (R4100-010, GenDEPOT, Katy, TX, USA) containing protease (P3100-001, GenDEPOT) and phosphatase (1862495, Thermo Fisher Scientific) inhibitors. WCLs were then centrifuged at 20,000×g for 30 min at 4 °C and subjected to non-reducing or reducing 8–12% SDS-PAGE gel electrophoresis. The membrane was blocked with 5% non-fat milk in TBS and probed with antibodies. Antibodies to hMLKL (14993S), mMLKL (97705S), phospho-hMLKL (Ser358) (91689S), phospho-mMLKL (Ser345) (37333S), phospho-hRIP1 (Ser166) (65746S), mRIP1 (3493S), phospho-mRIP1 (Ser321) (38662S), phospho-hRIP3 (Ser227) (93654), mRIP3 (95702S), p-mRIP3 (Thr231/Ser232) (91702S), and LDH (2012S) (Cell Signaling Technology, Danvers, MA, USA), and GAPDH (LF-PA0018, Abfrontier, S. Korea), hRIP1 (ab72139, Abcam, Cambridge, UK), hRIP3 (sc-135170, Santa Cruz Biotechnology, Dallas, TX, USA), HMGB1 (ab78923, Abcam), and LAMP1 (ab24170, Abcam) antibodies were used.
Cell membrane fractionation was performed to determine whether MLKL oligomers were retained in the cell membrane fraction. Briefly, THP-1 cells were harvested and resuspended in 20 mM TBS (pH 7.4) containing 10 mM KCl, 1 mM MgCl2, protease inhibitor (P3100-001, GenDEPOT), and phosphatase inhibitor (1862495, Thermo Fisher Scientific). The cell suspension was passed through a 22-gauge needle and centrifuged at 20,000×g for 15 min and stored as the cytoplasmic fraction. The pellet was resuspended in lysis buffer and stored as the crude membrane fraction.
(§3) Fig. S1 Assessment of p-MLKL inhibition to identify MLKL-targeting molecules. (A) Quantification graph corresponding to Fig. 1C. THP-1 cells were treated with TBZ in the presence of secondarily selected compounds (S1–S72, 20 μM). Whole-cell lysates (WCLs) were collected and subjected to Western blot analysis under reducing conditions using antibodies against p-MLKL, MLKL, and GAPDH. The p-MLKL/MLKL ratio was quantified and compared to that of TBZ-treated cells. Data represent the mean of three independent experiments. (B) Quantification graph corresponding to Fig. 1D. THP-1 cells were treated with TBZ in the presence of third-round selected compounds (S1–S62, 20 μM). Cytosolic and membrane fractions were collected and analyzed by Western blot under reducing conditions. The levels of p-MLKL and p-RIP1 were normalized to LDH (cytosolic marker) and LAMP1 (membrane marker), respectively. Quantified ratios were compared to those of TBZ-treated cells (n = 3 independent experiments).

p-MLKL = assay: Western blot of phosphorylated MLKL in whole cell lysates; type: cell-based, human; conditions: Homo sapiens; THP-1, TBZ and 20 μM compound, 8 h, whole cell lysates; read-out: p-MLKL/MLKL ratio relative to TBZ-treated cells (% Value)
Method: as §1, §2
as §3, with “THP-1 cells were treated with TBZ in the presence of secondarily selected compounds (S1–S72, 20 μM).” left out, “THP-1 cells were treated with TBZ in the presence of third-round selected compounds (S1–S62, 20 μM).” left out

SMILES	activity at 20 µM (THP-1-HMGB1-Lucia cells)	effect on p-MLKL levels in both cytosolic and membrane fractions (p-MLKL and p-RIP1)	activity at 20 µM (p-MLKL)	further results
CN1C(=O)[C@@H](NC(=O)c2nnc(Cc3ccccc3)[nH]2)COc2ccccc21 [GSK2982772]				therapeutic benefit (ulcerative colitis): failed to show significant therapeutic benefit; tolerability in humans (ulcerative colitis): well tolerated
COc1nccnc1NS(=O)(=O)c1ccc(NC(=O)/C=C/c2ccc([N+](=O)[O-])s2)cc1 [NSA, Necrosulfonamide]				activity against mouse MLKL (mouse MLKL): ineffective; competition for binding to hMLKL (Wt-hMLKL): competed with Ox-APO
CN1CCN(c2ccc(Nc3c4ccccc4nc4ccccc34)cc2)CC1 [S1, JP-1302]				activity (THP-1-HMGB1-Lucia cells): 0.4%; RIP1 phosphorylation (p-MLKL and p-RIP1): seemed to inhibit
COc1cc2ncnc(Nc3cccc(Cl)c3)c2cc1OC [S3, Tyrphostin]	7.5%	almost no effect	70%	
CC(=O)Oc1ccccc1C(=O)Nc1ncc([N+](=O)[O-])s1 [S15, Nitazoxanide]	1.2%	almost no effect	100%	
O=C(Nc1ccc([N+](=O)[O-])cc1Cl)c1cc(Cl)ccc1O [S72, Niclosamide]	0.9%		35%	
